Assay results published in US8951995B2, “Use of 24-nor-UDCA” (Medizinische Universitat Graz, priority 2005, dated 2015).
Where two headings read alike, the source gives them in different places.

Key:
Cyp7a1 = experiment: Real-time PCR, relative expression of Cyp7a1; type: in vivo; details: liver mRNA, Mdr2−/− mice fed 0.5% w/w for 4 weeks; KO = 100; mean ± SD, n = 5
Description: (§1) Two months-old Mdr2^−/− (a time point when sclerosing cholangitis is already fully established in these animals (Fickert, Zollner, et al. 2002) were either fed a diet supplemented with norUDCA (0.5%, w/w) or UDCA as a clinical comparator (0.5%, w/w) for 4 weeks and compared to standard-diet-fed Mdr2^−/− and wild type controls.
(§2) RNA isolation, cDNA synthesis and Taqman® real time PCR were performed as described previously (Wagner, Fickert, et al. 2003). The following primers and 5′ FAM, 3′ TAMRA labeled probes were used: Col1a1 fwd: […] (Seq ID No. 35), Col1a1 rev: […] (Seq ID No. 36) and Col1a1 probe: […] (Seq ID No. 37); TIMP-1 fwd: […] (Seq ID No. 38), TIMP-1 rev: […] (Seq ID No. 39) and TIMP-1 probe: […] (Seq ID No. 40); MMP-2 fwd: […] (Seq ID No. 41), MMP-2 rev: […] (Seq ID No. 42) and MMP-2 probe: […] (Seq ID No. 43).

Cyp2b10 = experiment: Real-time PCR, relative expression of Cyp2b10; type: in vivo; details: liver mRNA, Mdr2−/− mice fed 0.5% w/w for 4 weeks; KO = 100; mean ± SD, n = 5
Description: as §1, §2

Ugt1a1 = experiment: Real-time PCR, relative expression of Ugt1a1; type: in vivo; details: liver mRNA, Mdr2−/− mice fed 0.5% w/w for 4 weeks; KO = 100; mean ± SD, n = 5
Description: as §1, §2

Mrp3 = experiment: Real-time PCR, relative expression of Mrp3; type: in vivo; details: liver mRNA, Mdr2−/− mice fed 0.5% w/w for 4 weeks; KO = 100; mean ± SD, n = 5
Description: as §1, §2

Mdr2−/− mice [1] = experiment: Bile flow and biliary excretion measurement; type: in vivo; details: Mdr2−/− mice fed 0.5% w/w for 4 weeks, mean ± SD; for Bile flow: normalized to liver weight
Description: as §1
Bile flow was determined gravimetrically and normalized to liver weight as described previously (Fickert, Zollner, et al. 2001). Biliary phospholipids concentration was determined using a commercially available kit (Phospholipid B; Wako, Neuss, Germany) according to the manufacture's instructions. Biliary cholesterol concentration was determined using a commercial available kit (Cholesterol liquicolor; Human, Wiesbaden, Germany) according to the manufacture's instructions. Biliary gluthathione (GSH) concentration was determined after protein precipitation in 5% metaphosphoric acid using the Glutathione Assay Kit (Calbiochem, San Diego, US) according to the manufacturer's instructions. Biliary bile acid concentration was analyzed using a 3-alpha-hydroxysteroid dehydrogenase assay (Ecoline St, DiaSys) according to the manufacturer's instructions.

Cyp3a11 = experiment: Real-time PCR, relative expression of Cyp3a11; type: in vivo; details: liver mRNA, Mdr2−/− mice fed 0.5% w/w for 4 weeks; KO = 100; mean ± SD, n = 5
Description: as §1, §2

Mdr2−/− mice [2] = experiment: Liver histology (H&E, Sirius red) in bile acid-fed Mdr2−/− mice; type: in vivo
Description: as §1
For conventional light microscopy, livers were fixed in 4% neutral buffered formaldehyde solution and embedded in paraffin. Sections (4 μm thick) were stained with H&E and Sirius red stain, respectively. The sections were coded and examined by a pathologist (H. D.) unaware of the animals' treatment.

Mrp4 = experiment: Real-time PCR, relative expression of Mrp4; type: in vivo; details: liver mRNA, Mdr2−/− mice fed 0.5% w/w for 4 weeks; KO = 100; mean ± SD, n = 5
Description: as §1, §2

Sult2a1 = experiment: Real-time PCR, relative expression of Sult2a1; type: in vivo; details: liver mRNA, Mdr2−/− mice fed 0.5% w/w for 4 weeks; KO not detectable, KO + UDCA = 100; mean ± SD, n = 5
Description: as §1, §2

Mdr2−/− mice [3] = experiment: Routine serum biochemistry in bile acid-fed Mdr2−/− mice; type: in vivo; details: Mdr2−/− mice fed 0.5% w/w in diet for 4 weeks, mean ± SD, n = 5
Description: as §1
Serum samples were stored at −70° C. until analysis of alanine transaminase (ALT) and alkaline phosphatase (AP) by routine clinical chemistry performed on a Hitachi 717 analyzer (Boehringer Mannheim, Mannheim, Germany). For determination of total serum bile acid levels, a commercial 3-alpha-hydroxysteroid dehydrogenase assay (Ecoline S+; DiaSys, Holzheim, Germany) was used.

VCAM = experiment: Immunohistochemistry for vascular cell adhesion molecule (VCAM); type: in vivo; details: interlobular and lobular bile ducts, Mdr2−/− mice fed 0.5% w/w for 4 weeks; FIG. 4
Description: as §1
Immunohistochemistry for VCAM was performed on acetone fixed cryosections using the monoclonal rat anti CD106 (VCAM-1, dilution 1:30, PharMingen, San Diego, Calif., USA) and binding of the antibody was detected using the ABC system (Dako) using AEC (Dako) as substrate.

[4] = system: portal neutrophils (CD11b-positive cells); experiment: Immunohistochemistry for neutrophils marker CD-11b; type: in vivo; details: Mdr2−/− mice fed 0.5% w/w for 4 weeks, vs standard diet-fed KO; FIG. 3
Description: as §1
To quantify neutrophils CD 11b-positive cells were detected as described previously (Fickert, Fuchsbichler, et al. 2004) with the modification that binding of the antibody was detected using the ABC system (Dako) using AEC (Dako) as substrate. Number of neutrophils was calculated by counting positive cells in 20 portal fields in sections of 3 animals in each group.

[5] = norUDCA metabolism and excretion in mice; type: in vivo
[6] = rats; cited from earlier work
[7] = system: hepatocytes and cholangiocytes; experiment: Immunohistochemistry for proliferation marker Ki-67; type: in vivo; details: Mdr2−/− mice fed 0.5% w/w for 4 weeks; FIG. 5
Description: as §1
Immunohistochemistry for Ki-67 was performed on microwave-treated ([…] citrate buffer pH 6.0) paraffin sections (4 μm thick) using a polyclonal rabbit anti-Ki-67 antibody (dilution 1:750, Novocastra, Newcastle upon Tyne, UK). Binding of the antibody was detected using the ABC system (Dako) using AEC (Dako) as substrate. Number of proliferating hepatocytes was calculated by counting positive nuclei in 30 high power fields in sections of 3 animals in each group. Number of proliferating bile duct epithelial cells was calculated by counting positive nuclei in 20 portal fields in sections of 3 animals in each group.

Ntcp, Oatp1, Bsep, Mrp2 = experiment: mRNA expression of hepatocellular uptake and canalicular efflux systems; type: in vivo; details: Mdr2−/− mice fed 0.5% w/w for 4 weeks; data not shown
Description: as §1, §2

[8] = cited from earlier work
[9] = humans, relative to normal bile flow; cited from earlier work
[10] = Estimated choleretic potency in mice; type: in vivo; details: relative to normal bile flow
collagen 1 and 3 mRNA = experiment: Hepatic collagen 1 and 3 mRNA expression; type: in vivo; details: Mdr2−/− mice fed 0.5% w/w for 4 weeks
Description: as §1, §2

Mdr2−/− mice [11] = experiment: Hepatic hydroxyproline content; type: in vivo; details: Mdr2−/− mice fed 0.5% w/w for 4 weeks, vs control diet-fed KO; FIG. 2
Description: as §1
To quantify liver fibrosis in our model hepatic hydroxyproline content was determined. The right liver lobe was homogenized in 6-normal HCl (200 mg liver tissue/4 ml HCl) and hydrolyzed at 110° C. for 16 h. After filtration 50 μl were added to 450 μl 2.2% NaOH dissolved in citrate-acetate buffer (50 g citric acid×H2O, 12 ml acidic acid, 120 g sodium acetate×3H2O, 34 g NaOH ad 1 liter distilled water; pH 6.0). After adding 250 μl perchloric acid and 12 min incubation at room temperature 250 μl p-dimethylaminobenzaldehyde solution was added and incubated at 60° C. for 20 min. Hydroxyproline content was measured at 565 nm using a hydroxyproline standard curve.

[12] = Mdr2−/− mice fed 0.5% w/w for 4 weeks

Relative expression level of Cyp7a1 (Cyp7a1) | Relative expression level of Cyp2b10 (Cyp2b10) | Relative expression level of Cyp3a11 (Cyp3a11) | SMILES | Relative expression level of Ugt1a1 (Ugt1a1) | Relative expression level of Mrp3 (Mrp3) | Biliary excretion of bicarbonate (Mdr2−/− mice [1]) | Biliary excretion of bile acids (Mdr2−/− mice [1]) | Biliary excretion of cholesterol (Mdr2−/− mice [1]) | Biliary excretion of glutathione (Mdr2−/− mice [1]) | Biliary excretion of phospholipids (Mdr2−/− mice [1]) | Bile flow (Mdr2−/− mice [1]) | Relative expression level of Mrp4 (Mrp4) | Relative expression level of Sult2a1 (Sult2a1) | ALT (Mdr2−/− mice [3]) | AP (Mdr2−/− mice [3]) | Bili (Mdr2−/− mice [3]) | also measured
9 ± 4 | 751 ± 245 | 246 ± 72 | C[C@H](CCC(=O)O)[C@H]1CC[C@H]2[C@@H]3[C@@H](O)C[C@@H]4C[C@H](O)CC[C@]4(C)[C@H]3CC[C@]12C [UDCA, Ursodeoxycholic acid] | 137 ± 55 | 194 ± 55 | 67.1 ± 10.0 nmol/g/min | 37.2 ± 7.6 nmol/g/min | 0.3 ± 0.1 nmol/g/min | 5.6 ± 1.1 nmol/g/min | 0.3 ± 0.03 nmol/g/min | 2.4 ± 0.3 µL/g/min | 357 ± 95 | 100 ± 46 | 576 ± 175 U/L | 399 ± 73 U/L | 0.55 ± 0.19 | Animals showing bile infarcts (Mdr2−/− mice [2]; [12]): 2 out of 5
60 ± 30 | 1294 ± 418 | 241 ± 45 | C[C@H](CC(=O)O)[C@H]1CC[C@H]2[C@@H]3[C@@H](O)C[C@@H]4C[C@H](O)CC[C@]4(C)[C@H]3CC[C@]12C [norUDCA, 3-alpha,7-alpha-dihydroxy-24-nor-5-beta-cholan-23-oic acid] | 304 ± 81 | 207 ± 73 | 98.8 ± 14.6 nmol/g/min | 29.5 ± 2.3 nmol/g/min | 0.2 ± 0.04 nmol/g/min | 5.8 ± 1.2 nmol/g/min | 0.3 ± 0.1 nmol/g/min | 3.5 ± 0.3 µL/g/min | 590 ± 193 | 24157 ± 14948 | 165 ± 23 U/L | 162 ± 25 U/L | 0.23 ± 0.2 | VCAM expression in bile duct epithelial cells (VCAM): significantly lower VCAM expression; Number of portal neutrophils (CD11b-positive cells per 20 portal fields) / portal inflammation [4]: significantly reduced number of portal neutrophils; Major metabolite of norUDCA ([5]; mice): glucuronide; Renal excretion of norUDCA ([5]; mice): considerable renal excretion; Bile acid sulfates and glucuronides in urine ([5]; norUDCA fed Mdr2−/− mice): appearance of bile acid sulfates and glucuronides in urine; Induced bile flow [6]: 0.16 mL/min/kg; Proliferation of bile duct epithelial cells / cholangiocytes (Ki-67 positive) [7]: significantly reduced the degree of hepatocyte and bile duct epithelial cell proliferation to nearly wild type control levels; Proliferation of hepatocytes (Ki-67 positive) [7]: significantly reduced the degree of hepatocyte and bile duct epithelial cell proliferation to nearly wild type control levels; mRNA expression of hepatocellular uptake (Ntcp, Oatp1) and canalicular efflux (Bsep, Mrp2) systems (Ntcp, Oatp1, Bsep, Mrp2): no significant effects; Renal excretion of norUDCA ([8]; humans (men)): considerable renal excretion; Major metabolite of norUDCA ([8]; humans): glucuronide; Ductular proliferation (Mdr2−/− mice [2]; [12]): virtually absent; Large bile duct disease (H&E staining) (Mdr2−/− mice [2]; Mdr2−/− mice fed 0.5% w/w for 4 weeks, vs control diet-fed KO, FIG. 1A): absent; Fibrosis with periductal collagen fibers (Sirius red staining) (Mdr2−/− mice [2]; Mdr2−/− mice fed 0.5% w/w for 4 weeks, vs control diet-fed KO, FIG. 1C): even more pronounced reduction; Sclerosing cholangitis (Mdr2−/− mice [2]; Mdr2−/− mice, model for PSC, within 4 weeks): cures sclerosing cholangitis; Estimated choleretic potency [9]: about three times above that of normal bile flow; Estimated choleretic potency [10]: about three times above that of normal bile flow; Hepatic collagen 1 and 3 mRNA expression (collagen 1 and 3 mRNA): significant reduction; Hepatic hydroxyproline content (Mdr2−/− mice [11]): reduced to baseline levels
